Results reported in patent US9399631B2, “Polyphenol proteasome inhibitors, synthesis, and methods of use” (UNIVERSITY OF SOUTH FLORIDA, priority 2003, dated 2016).
Read-outs that look alike come from different tables or passages of the source.

Legend:
purified 20S proteasome [1] = molecular target: purified 20S proteasome (UniProt Q9P992); assay: Inhibition of chymotrypsin-like activity of purified 20S proteasome (source not stated); format: biochemical; set-up: IC50; other: purified 20S proteasome, multiple concentrations; conditions: purified 20S proteasome, multiple concentrations
Sequence of purified 20S proteasome (UniProt Q9P992) (Q9P992 whole entry): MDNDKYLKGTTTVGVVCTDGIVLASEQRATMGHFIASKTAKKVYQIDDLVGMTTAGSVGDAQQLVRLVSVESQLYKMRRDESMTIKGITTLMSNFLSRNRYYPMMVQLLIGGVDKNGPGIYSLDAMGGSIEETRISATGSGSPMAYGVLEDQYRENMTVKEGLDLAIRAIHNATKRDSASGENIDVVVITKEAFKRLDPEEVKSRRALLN
Method: Inhibition of purified 20S proteasome activity by natural or synthetic GTPs. Purified prokaryotic (0.5 μg) or eukaryotic (0.02 μg) 20S proteasome was incubated with 20 μM fluorogenic peptide substrate, Suc-Leu-Leu-Val-Tyr-AMC for 30 min at 37° C. in […] of assay buffer (50 mM Tris-HCl, pH 7.5), with or without a natural or synthetic tea polyphenol. After incubation, production of hydrolyzed 7-amido-4-methyl-coumarin (AMC) groups was measured using a multi-well plate VERSAFLUOR Fluorometer with an excitation filter of 380 nm and an emission filter of 460 nm (BIO-RAD), and a multi-well plate reader Wallac 1420 VICTORTM^2 with an excitation filter of 355 nm and an emission filter of 460 nm (EG&G WALLAC).

DU145 cells = assay: Cell-free caspase-3 activity assay, DU145 cells; format: cell-based, human; conditions: 10 μM, 72 hours, normalized to 0 hours
Method: To examine whether (+)-EGCG could induce apoptosis only in LNCaP, but not DU-145, cells, both cell lines were treated with 10 μM (+)-EGCG for 0, 24, 48 or 72 hours, followed by performance of cell-free caspase-3 activity assay. Cells were harvested at each sequential time-point and activity was determined by incubating whole cell extracts with caspase-3 substrate and measuring free AMCs (FIG. 20C). All the time-points were normalized to 0 hours. (+)-EGCG activated caspase-3 in LNCaP cells in a time-dependent manner: by 2.5-, 3.5- and 6-fold at 24, 48 and 72 hours, respectively (FIG. 20C). In contrast, little caspase-3 activity was detected in (+)-EGCG-treated in DU145 cells: only ˜2-fold induction at 72 hours (FIG. 20C). In the same experiment, (−)-EGCG at 10 μM was used as a control. […] Therefore, the abilities of (+)-EGCG to activate apoptotic program in these prostate cancer cell lines are correlated well to their abilities to accumulate Bax protein levels to a critical high threshold (compare FIGS. 20C and 20D vs. 20B). Values are means of triplicate independent experiments and error bars denote standard deviations.

[2] = tested on: prokaryotic 20S proteasome; assay: Dialysis assay for irreversible inhibition, prokaryotic 20S proteasome; format: biochemical, Methanosarcina thermophile
Method: Materials. Highly purified tea polyphenols (−)-EGCG (>95%), (−)-GCG (>98%), (−)-ECG (>98%), (−)-CG (>98%), fetal calf serum, propidium iodide, 3-[4,5-dimethylthiazol-2-yl]-2,5-diphenyltetrazolium bromide (MTT), RNase A, and DMSO were purchased from Sigma (St. Louis, Mo.). (+)-EGCG, benzyl-protected-(+)-EGCG, (+)-GCG, (−)-EGCG-amide, and (+)-EGCG-amide were prepared by enantioselective synthesis (see below). Purified 20S eukaryotic proteasome from rabbit was purchased from BOSTON BIOCHEM (Cambridge, Mass.). Purified 20S prokaryotic proteasome (Methanosarcina thermophile, Recombinant, E. coli) was purchased from CALBIOCHEM (La Jolla, Calif.). Fluorogenic peptide substrates Suc-Leu-Leu-Val-Tyr-AMC (for the proteasomal chymotrypsin-like activity) was obtained from Calbiochem (La Jolla, Calif.). RPMI 1640 medium, Dulbecco's modified Eagle's medium, MEM non-essential amino acids solution, MEM-sodium pyruvate solution, penicillin, and streptomycin were from INVITROGEN (Carlsbad, Calif.). Monoclonal antibody to p27^Kip was purchased from PHARMINGEN (San Diego, Calif.); polyclonal antibodies to IκB-α, Bax and actin, and monoclonal antibody to ubiquitin were from SANTA CRUZ Biotechnology Inc. (Santa Cruz, Calif.).
Assays for irreversible inhibition. To measure the effect of dialysis on (−)-EGCG-mediated proteasome inhibition, 20S prokaryotic proteasome (2 μg) was incubated with 10 μM (−)-EGCG or the control solvent (H2O) in 50 mM Tris-HCl, pH 7.5 for 1 hour. This was then incubated at 4° C. either without or with dialysis overnight using a 10,000 MWCO Pierce Slide-A-Lyzer Dialysis Cassette (Rockford, Ill.) in a rotating bath of 50 mM Tris-HCl, pH 7.5. The proteasomal chymotrypsin-like activity was then assayed as previously described. As a control, an EGCG solution (without purified 20S proteasome) was dialyzed overnight, followed by measurement of the effects on inhibition of the proteasome activity.
To investigate the nature of (−)-EGCG-mediated proteasome inhibition, a dialysis experiment was performed. […]

purified 20S proteasome [3] = conditions: natural (−)-EGCG; cited from earlier work

Compound: O=C(OC1Cc2c(O)cc(O)cc2OC1c1cc(O)c(O)c(O)c1)c1cc(O)c(O)c(O)c1 (single isomer, unassigned; (+)) [(+)-GCG]
- IC50 (purified 20S proteasome [1]): 410 nM

Compound: O=C(OC1Cc2c(O)cc(O)cc2OC1c1cc(O)c(O)c(O)c1)c1cc(O)c(O)c(O)c1 (single isomer, unassigned; (+)) [(+)-EGCG]
- IC50 (purified 20S proteasome [1]; read-out: IC50): 210 nM
- caspase-3 induction (DU145 cells): ~2 fold

Compound: O=C(O[C@@H]1Cc2c(O)cc(O)cc2O[C@@H]1c1cc(O)c(O)c(O)c1)c1cc(O)c(O)c(O)c1 [(−)-EGCG, (−)-epigallocatechin-3-gallate, reference compound]
- inhibition of chymotrypsin-like activity ([2]; 10 μM, 1 h pre-incubation, overnight dialysis): 81%
- inhibition of chymotrypsin-like activity ([2]; 10 μM, absence of dialysis): 85%
- inhibition of chymotrypsin-like activity ([2]; compound dialyzed overnight before addition to proteasome (EGCG pre)): no inhibition was observed
- IC50 (purified 20S proteasome [3]): 100 to 200 nM
